Test results taken from patent US20070048371A1, “Pharmaceutical formulations/composition of guanfacine suitable for single dose form administration daily” (priority 2005, published 2007).

What was measured:
[1] = Example 3: Phase I single-dose crossover bioequivalence/dose proportionality study, 1 mg, 2 mg, 4 mg tablets, healthy adult volunteers; assay type: in vivo, human; settings: for Vd/F: Vz/F; for half-life: t1/2
Experimental: Objectives: The study was designed to assess the bioequivalence of guanfacine 2 mg and 4 mg tablets from table 2 and to investigate the dose proportionality of 1 mg, 2 mg, and 4 mg doses.
Methods: This was a Phase I, randomized, open-label, single-dose, five period, four-treatment crossover design with a separate lead-in period.
Forty-nine (49) healthy adult volunteers completed the study. During period 1, all subjects received a single 1 mg dose administered after and overnight fast. Prior to period 2, subjects were randomly assigned to one of four sequence groups, with 13 subjects per sequence. During treatment periods 2-5, subjects received their assigned treatment of 2 mg or 4 mg. All subjects were to receive two single doses of 2 mg tablets and two single doses of 4 mg tablets during the course of the study. Doses during periods 2-5 were also administered after an overnight fast.

[2] = Example 4: Phase I single-dose crossover bioequivalence study, 2.5 mg versus 2 mg tablets, healthy adult volunteers; assay type: in vivo, human; settings: for AUC(0-t): AUC0-last; for Vd/F: Vz/F
Experimental: Objectives: The objective of this study was to investigate the bioequivalence of guanfacine 2.5 mg tablets versus guanfacine 2 mg tablets.
Methods: This Phase I study utilized a randomized, open-label, single-dose, three-treatment crossover design. Forty-eight (48) healthy adult volunteers completed the study. All subjects were randomly assigned to one of 6 treatment sequences and received a 2 mg and 2.5 mg tablet of guanfacine. During treatment periods 1-3, subjects received their assigned treatment (a single oral dose 2 mg or 2.5 mg after an overnight fast).

With N=C(N)NC(=O)Cc1c(Cl)cccc1Cl [guanfacine] the AUC(0-inf) ([1]; human, in vivo, 4 mg, AUC∞) was about 125 ng·h/mL, the Cmax ([1]; human, in vivo, 4 mg, mean Cmax) was about 3.58 ng/mL and the Tmax ([1]; human, in vivo, 4 mg, median Tmax) was about 5 h. The CL/F ([1]; human, in vivo, po, 1 mg) was 560 ± 194 mL/mm, the AUC(0-t) ([1]; human, in vivo, po, 1 mg, AUC0-t) was 29.3 ± 8.84 ng·h/mL and the AUC(0-inf) ([1]; human, in vivo, po, 1 mg, AUC0-∞) was 32.4 ± 8.78 ng·h/mL. The Cmax ([1]; human, in vivo, po, 1 mg, Cmax) was 0.98 ± 0.26 ng/mL, the Vd/F ([1]; human, in vivo, po, 1 mg) was 823 ± 249 L and the half-life ([1]; human, in vivo, po, 1 mg) was 17.5 ± 3.83 h. The Tmax ([1]; human, in vivo, po, 1 mg, tmax) was 6 h, the “AUC0-∞” value ([1]; human, in vivo, po, 2 mg) was 57.8 ± 19.1 ng·h/mL and the AUC(0-t) ([1]; human, in vivo, po, 2 mg) was 54.0 ± 17.6 ng·h/mL. The Cmax ([1]; human, in vivo, po, 2 mg) was 1.54 ± 0.53 ng/mL, the Vz/F ([1]; human, in vivo, po, 2 mg) was 889 ± 241 L and the t1/2 ([1]; human, in vivo, po, 2 mg) was 16.7 ± 4.12 h. For the same compound, the AUC(0-t) ([1]; human, in vivo, po, 2 mg, AUC0-t) was 55 ± 18 ng·h/mL, the AUC(0-inf) ([1]; human, in vivo, po, 2 mg, AUC0-∞) was 58.1 ± 18.8 ng·h/mL and the Cmax ([1]; human, in vivo, po, 2 mg, Cmax) was 1.59 ± 0.49 ng/mL. The Vd/F ([1]; human, in vivo, po, 2 mg) was 894 ± 328 L, the half-life ([1]; human, in vivo, po, 2 mg) was 16.4 ± 3.46 h and the Tmax ([1]; human, in vivo, po, 2 mg, tmax) was 6 h. For the same compound, the “AUC0-∞” value ([1]; human, in vivo, po, 4 mg) was 123 ± 44.6 ng·h/mL, the AUC(0-t) ([1]; human, in vivo, po, 4 mg) was 119 ± 43.4 ng·h/mL and the Cmax ([1]; human, in vivo, po, 4 mg) was 3.59 ± 1.40 ng/mL. The Vz/F ([1]; human, in vivo, po, 4 mg) was 866 ± 393 L, the t1/2 ([1]; human, in vivo, po, 4 mg) was 16.2 ± 4.15 h and the AUC(0-t) ([1]; human, in vivo, po, 4 mg, AUC0-t) was 120 ± 41.5 ng·h/mL. For the same compound, the AUC(0-inf) ([1]; human, in vivo, po, 4 mg, AUC0-∞) was 125 ± 46 ng·h/mL, the Cmax ([1]; human, in vivo, po, 4 mg, Cmax) was 3.58 ± 1.39 ng/mL and the Vd/F ([1]; human, in vivo, po, 4 mg) was 854 ± 294 L. For the same compound, the half-life ([1]; human, in vivo, po, 4 mg) was 17.1 ± 5.51 h, the Tmax ([1]; human, in vivo, po, 4 mg, tmax) was 5.01 h and the half-life ([1]; human, in vivo) was 17.1 ± 5.5 h. For the same compound, the “deaths or serious adverse events” value ([1]; single 1 mg, 2 mg, 4 mg doses, healthy adults) was “no deaths or serious adverse events”, the AUC(0-t) ([2]; human, in vivo, 2.5 mg) was about 81.3 ng·h/mL and the AUC(0-inf) ([2]; human, in vivo, 2.5 mg, AUC∞) was about 85 ng·h/mL. For the same compound, the Cmax ([2]; human, in vivo, 2.5 mg, mean Cmax) was about 2.49 ng/mL, the Tmax ([2]; human, in vivo, 2.5 mg, median Tmax) was about 6 h and the CL/F ([2]; human, in vivo, po, 2 mg) was 612 ± 303 mL/min. The AUC(0-inf) ([2]; human, in vivo, po, 2 mg, AUC0-inf) was 64.2 ± 22.6 ng·h/mL, the AUC(0-t) ([2]; human, in vivo, po, 2 mg) was 59.8 ± 20.9 ng·h/mL and the Cmax ([2]; human, in vivo, po, 2 mg, Cmax) was 1.71 ± 0.56 ng/mL. For the same compound, the half-life ([2]; human, in vivo, po, 2 mg, T½) was 17.7 ± 5.8 h, the Vd/F ([2]; human, in vivo, po, 2 mg) was 884 ± 382 L and the Tmax ([2]; human, in vivo, po, 2 mg, tmax) was 6 h. For the same compound, the T½ ([2]; human, in vivo, po, 2.5 mg) was 16.7 ± 7.4 h, the Vz/F ([2]; human, in vivo, po, 2.5 mg) was 809 ± 406 L and the AUC(0-inf) ([2]; human, in vivo, po, 2.5 mg, AUC0-inf) was 84.5 ± 34.2 ng·h/mL. The AUC(0-t) ([2]; human, in vivo, po, 2.5 mg) was 77.8 ± 30.4 ng·h/mL, the Cmax ([2]; human, in vivo, po, 2.5 mg, Cmax) was 2.26 ± 0.67 ng/mL and the Tmax ([2]; human, in vivo, po, 2.5 mg, Tmax) was 5 h. It also gave a half-life ([2]; human, in vivo, po, 2.5 mg, T½) of 19 ± 6.6 h, a Vd/F ([2]; human, in vivo, po, 2.5 mg) of 915 ± 390 L and a half-life ([2]; human, in vivo, t1/2) of 16.7 ± 7.4 h. For the same compound, the deaths ([2]; single 2 mg and 2.5 mg doses, healthy adults) was “no deaths”.
